# Measured values as given in PMC9105972 (International Journal of Molecular Sciences, 2022).
# Read-outs that look alike come from different tables or passages of the source.
# What was measured:
# AChE [1] = conditions: cited from earlier work
# [2] = biological target: human brain AChE (HuAChE); conditions: cited from earlier work
# [3] = biological target: AChE from Torpedo californica (TcAChE); conditions: cited from earlier work
# AChE [4] = conditions: in vivo, rats, mice and rabbits; cited from earlier work
# TcAChE = biological target: T1, TcAChE (Tetronarce californica, UniProt P04058); experiment: Pre-steady-state analysis by global fitting of full progress curves (ENZO); assay type: biochemical, Torpedo californica
# T1 construct: TcAChE was isolated and purified as previously described; from tissue
# T1 sequence (P04058 22-586): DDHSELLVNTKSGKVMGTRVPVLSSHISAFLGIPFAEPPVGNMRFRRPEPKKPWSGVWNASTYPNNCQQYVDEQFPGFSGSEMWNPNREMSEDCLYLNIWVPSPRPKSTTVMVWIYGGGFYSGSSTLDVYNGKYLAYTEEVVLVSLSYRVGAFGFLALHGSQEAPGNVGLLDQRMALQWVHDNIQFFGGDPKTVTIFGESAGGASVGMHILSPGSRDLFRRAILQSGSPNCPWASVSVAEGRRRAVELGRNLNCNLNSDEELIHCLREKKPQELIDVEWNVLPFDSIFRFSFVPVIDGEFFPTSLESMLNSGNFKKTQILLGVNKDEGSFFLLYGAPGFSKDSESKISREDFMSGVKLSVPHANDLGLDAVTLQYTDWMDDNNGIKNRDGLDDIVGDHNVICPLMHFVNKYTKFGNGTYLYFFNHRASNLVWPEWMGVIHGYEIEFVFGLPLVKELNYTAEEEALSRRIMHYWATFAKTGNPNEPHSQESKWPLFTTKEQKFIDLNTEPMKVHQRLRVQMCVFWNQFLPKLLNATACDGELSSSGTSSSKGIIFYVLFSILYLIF
structure (smiles),measurement,setting,value
"COc1ccc2c3c1O[C@H]1C[C@@H](O)C=C[C@@]31CCN(C)C2 [GAL, galantamine]",IC50,AChE [1]; highest of 15 BRENDA entries,[…]
same,Ki,"[2]; human brain AChE, competitive inhibition, 1976",0.052 µM
same,Ki,"[2]; recombinant form of HuAChE, 2003",0.52 µM
same,Ki,[3],0.2 µM
same,times weaker AChE inhibitor than donepezil,AChE [4],3–15 times
"C[N+](C)(C)CCSSc1ccc([N+](=O)[O-])c(C(=O)[O-])c1 [thiocholine-TNB, thiocholine-thionitrobenzoic acid]",Ki,"TcAChE; TcAChE 200 pM, ATCh 35 µM, initial thiocholine-TNB 0 to ~150 µM, competitive, read-out: Ki for product inhibition",21.5 ± 0.38 µM
same,inhibition mechanism,TcAChE; fit of full progress curves,competitive inhibition mechanism
